Reference: patent US4171299A, “Polypeptide agents for blocking the human allergic response” (The Regents of the University of California, priority 1976, dated 1979)
Peptide text beside a SMILES is read from it.

How the values were obtained:
Assay type in all cases: in vivo
[1] = molecular target: T1, binding sites on mast cells (Homo sapiens, UniProt P12319); experiment: Prausnitz-Kustner (P-K) reaction blocking activity assay in human volunteers; conditions: for inhibition, individual high: highest individual of six; for inhibition, individual high / inhibition, individual low: same conditions as the average; for inhibition, individual low: lowest individual of six; for average % inhibition (P-K wheal): six individuals, peptide approx. 6 μg/ml, 0.1 ml intradermally per site, 0.05 ml diluted P-K serum containing 0.2 ng IgE, guinea pig antigen prick-puncture, versus control wheal
T1 construct: endogenous in cells; host or cells: skin mast cells of living human volunteers (intradermal injection sites on back or forearm)
T1 sequence (P12319 26-257): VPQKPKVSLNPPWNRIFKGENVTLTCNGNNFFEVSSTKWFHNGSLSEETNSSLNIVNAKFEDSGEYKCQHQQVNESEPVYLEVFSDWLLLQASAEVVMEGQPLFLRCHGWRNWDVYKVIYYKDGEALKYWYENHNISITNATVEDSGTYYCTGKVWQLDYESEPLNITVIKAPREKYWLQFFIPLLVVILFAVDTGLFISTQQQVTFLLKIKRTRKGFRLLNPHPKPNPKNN
T1 sequence (Q01362 1-244 partner): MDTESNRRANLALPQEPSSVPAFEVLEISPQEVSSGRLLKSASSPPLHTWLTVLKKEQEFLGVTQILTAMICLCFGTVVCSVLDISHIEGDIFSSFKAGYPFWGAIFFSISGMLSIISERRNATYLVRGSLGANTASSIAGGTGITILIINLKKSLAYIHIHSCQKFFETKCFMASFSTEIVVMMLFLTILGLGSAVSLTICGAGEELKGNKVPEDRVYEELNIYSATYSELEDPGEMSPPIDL
T1 sequence (P30273 19-86 partner): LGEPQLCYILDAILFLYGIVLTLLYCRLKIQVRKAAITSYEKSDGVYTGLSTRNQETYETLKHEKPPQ
Method: The "blocking" activity of the polypeptides of the invention can be assayed by utilization of the classic Prausnitz-Kustner (P-K) reaction. In this classic method, a known allergic serum i.e., one that contains IgE specific for a known antigen or allergen is injected intradermally into a human volunteer. After waiting a period of time, e.g. 20 or more hours, the injected sites are then challenged with a prick or injection of a solution of an antigen that is specific for the IgE in the injected serum. Within the next 10 to 30 minutes a positive reaction is evidenced by the development of a wheal (and flare) at the injected site. The more extensive the diameter of the wheal the more intensive is the allergic reaction. That is, a more extensive wheal indicates a greater release of histamine into the tissues at the injected site. Conversely, the development of wheals of lesser diameter or the absence of any wheal at all indicates diminished allergic reaction and/or no allergic reaction at all. The P-K reaction as noted above is a classic test and is universally known and utilized by allergists.
As noted above, the classic P-K reaction is utilized to assay the "blocking" abilities of the polypeptides utilized in the present invention.
The following describes assays of a number of polypeptides useful in the present invention, the synthesis of which was described hereinabove.
All of these assays were performed using a single proven safe P-K donor serum that contains IgE specific for guinea pig allergens.
Peptide solutions were either injected intradermally 1 to 24 hours prior to the P-K serum, or mixed with dilutions of the P-K serum for simultaneous injection. Initial tests were performed using the P-K serum at from 1:4 to 1:200 dilutions. Further studies were run at a fixed P-K dilution of 1:32 while the invention peptide solutions were varied to contain from about 1 mM to […] of the peptide being tested. Injected sites on the volunteers were challenged by prick-puncture of guinea pig BCA 1:40 w/v (purchased from Berkeley Biologicals, Inc.).
Human volunteers were chosen who had serum IgE levels below 100 U/ml (242 ng/ml) which levels have been previously shown to assure successful P-K reactivity. […] P-K and skin tests were performed on the back and/or forearm. Multiple test sites of approximately 25 mm diameter were circled with a marking pen and all injections were made within the circled skin areas.
A typical sequence of events was intradermal injection of 0.1 ml of the peptide solution or control buffered saline diluent solution; followed in 1 to 24 hours by intradermal injection of 0.05 ml. of P-K serum into each of the previously injected sites. After 20 to 24 hours had elapsed, each site was prick-punctured with the antigen solution, blotted dry in 5 minutes and measurements of the wheal and flare in both their narrowest and widest diameter were made three times, usually 15, 20 and 25 minutes after prick-punctures.
Blocking activity assays were undertaken with the following polypeptides: Asp-Pro-Arg; Ser-Asp-Pro-Arg; Asp-Ser-Asp-Pro-Arg; and Ala-Asp-Ser-Asp-Pro-Arg. For comparison testing, Asp-Thr-Glu-Ala-Arg and tosyl-L-arginine sarcosine methylester (TASME), were also synthesized and tested.
The above-noted polypeptides were assayed as noted above on six different individuals. Results were as follows:
The results, as noted above, present the average of measurements at three time intervals, in duplicate, for each reaction in each individual, subtracted from the average control wheal measurements, and divided by the average measurement of each individual's control wheal. Control wheals in different individuals varied from 8 to 40 mm^2 with a mean of 17 mm^2. Each peptide was utilized at approximately 6 μg/ml dilution and 0.1 ml. was injected at each site, followed by 0.05 ml. of diluted P-K serum containing 0.2 ng. of IgE. […]

[2] = test system: DBA white mice; experiment: Acute toxicity in DBA white mice; conditions: 24 to 72 hours post-injection; for post-mortem gross and microscopic examination of tissues and organs: 1.4 ml i.d./s.c./i.v./i.p.
Method: Acute toxicity was determined as follows:
DBA white mice (average weight 15 g.) were each injected with 1.4 ml. of a solution of the peptide in phosphate buffered saline, pH 7.4, as follows:
0.1 ml.×3 --subcutaneously
0.6 ml.--intraperitoneally
The peptides and concentrations used were as follows:
Ala-Asp-Ser-Asp-Pro-Arg (Example 4)--5 μg/ml--(375 mg/kg)--6 mice
Asp-Ser-Asp-Pro-Arg (Example 3)--10 μg/ml--(1 mg/kg)--8 mice
Asp-Ser-Asp-Pro-Arg (Example 3)--13 μg/ml--(1.3 mg/kg)--8 mice

[3] = molecular target: T2, IgE already bound to mast cell sites (Homo sapiens, UniProt P12319); experiment: Displacement test: direct guinea pig antigen skin challenge in a naturally sensitive individual; conditions: single sensitive individual; for wheal smaller than at buffered saline diluent site: challenge twenty-four hours after intradermal injection of approx. 2 nM
T2 construct: endogenous in cells; host or cells: skin mast cells of one naturally guinea-pig-sensitive person, carrying own IgE
T2 sequence (P12319 26-257): T1 sequence (P12319 26-257)
T2 sequence (Q01362 1-244 partner): T1 sequence (Q01362 1-244 partner)
T2 sequence (P30273 19-86 partner): T1 sequence (P30273 19-86 partner)
Method: It has also been determined that the active polypeptides of the invention appear to have the ability to "displace" IgE from mast cell sites as well as to prevent the binding of IgE to these sites. In a single test, an individual known to have extreme sensitivity to guinea pig antigens, that is a person with a high natural concentration of guinea-pig-antigen-sensitive IgE, was injected with polypeptides in accordance with the invention, and […] reaction to guinea pig antigen was noted.
Specifically, approximately 2 nM each of Asp-Ser-Asp-Pro-Arg and Ala-Asp-Ser-Asp-Pro-Arg were each intradermally injected into 3 marked sites. For comparison, TASME, as well as a control of the buffer diluent alone, was also each injected into 3 marked sites. At one, five and twenty-four hours subsequent to the polypeptide and control injection, one of each peptide and one diluent site were prick-puncture challenged with guinea pig antigen. […] However, at the twenty-four hour challenge, the wheal at the Asp-Ser-Asp-Pro-Arg site was approximately 45% smaller; while at the Ala-Asp-Ser-Asp-Pro-Arg site, the wheal was approximately 23% smaller.

Molecule	inhibition, individual high [1] [%]	inhibition, individual low [1] [%]	average % inhibition (P-K wheal) [1] [%]	post-mortem gross and microscopic examination of tissues and organs ([2]; 5 μg/ml (375 mg/kg), 6 mice)	survival of mice ([2]; 5 μg/ml (375 mg/kg), 6 mice)	wheal smaller than at buffered saline diluent site [3]	inhibition of the wheal and flare reaction ([3]; challenge one and five hours after intradermal injection of approx. 2 nM)	post-mortem gross and microscopic examination of tissues and organs ([2]; 10 μg/ml (1 mg/kg), 8 mice)	survival of mice ([2]; 10 μg/ml (1 mg/kg), 8 mice)	post-mortem gross and microscopic examination of tissues and organs ([2]; 13 μg/ml (1.3 mg/kg), 8 mice)	survival of mice ([2]; 13 μg/ml (1.3 mg/kg), 8 mice)
C[C@H](N)C(=O)N[C@@H](CC(=O)O)C(=O)N[C@@H](CO)C(=O)N[C@@H](CC(=O)O)C(=O)N1CCC[C@H]1C(=O)N[C@@H](CCCNC(=N)N)C(=O)O [Ala-Asp-Ser-Asp-Pro-Arg] (H-ADSDPR-OH)	61	10	46	no local or systemic toxicological abnormalities	all still living	approximately 23%					
C[C@H](NC(=O)[C@H](CCC(=O)O)NC(=O)[C@@H](NC(=O)[C@@H](N)CC(=O)O)[C@@H](C)O)C(=O)N[C@@H](CCCNC(=N)N)C(=O)O [Asp-Thr-Glu-Ala-Arg, reference compound] (H-DTEAR-OH)	80	30	58								
N=C(N)NCCC[C@H](NC(=O)[C@@H]1CCCN1C(=O)[C@@H](N)CC(=O)O)C(=O)O [Asp-Pro-Arg] (H-Asp-Pro-Arg-OH)	38	0	15								
N=C(N)NCCC[C@H](NC(=O)[C@@H]1CCCN1C(=O)[C@H](CC(=O)O)NC(=O)[C@@H](N)CO)C(=O)O [Ser-Asp-Pro-Arg] (H-SDPR-OH)	50	0	18								
tosyl-L-arginine sarcosine methylester [TASME, reference compound]	40	0	24			No reduction in the size of the wheal	No inhibition				
N=C(N)NCCC[C@H](NC(=O)[C@@H]1CCCN1C(=O)[C@H](CC(=O)O)NC(=O)[C@H](CO)NC(=O)[C@@H](N)CC(=O)O)C(=O)O [Asp-Ser-Asp-Pro-Arg] (H-DSDPR-OH)	89	60	72			approximately 45%		no local or systemic toxicological abnormalities	all still living	no local or systemic toxicological abnormalities	all still living
